Laboratory results: ChEMBL document CHEMBL1201862, “PubChem BioAssay data set” (2004)
Active and inactive are the calls of the source.

Legend:
[1] = target: Melanin-concentrating hormone receptor 1 (Homo sapiens, UniProt Q99705); test: Fluorescence-based counterscreen for antagonists of the G-protein coupled receptor 7 (GPR7): cell-based high throughput dose response assay to identify antagonists of the melanin-concentrating hormone receptor 1 (MCHR1).; type: functional
[2] = target: T1, Neuropeptides B/W receptor type 1 (Homo sapiens, UniProt P48145); test: Fluorescence-based dose response cell-based high throughput screening assay to identify antagonists of the G-protein coupled receptor 7 (GPR7). [Related pubchem assays: 1952 (Screening assay (GPR7 antagonists).), 1880 (Summary AID.)]; type: functional
T1 sequence (P48145 whole entry): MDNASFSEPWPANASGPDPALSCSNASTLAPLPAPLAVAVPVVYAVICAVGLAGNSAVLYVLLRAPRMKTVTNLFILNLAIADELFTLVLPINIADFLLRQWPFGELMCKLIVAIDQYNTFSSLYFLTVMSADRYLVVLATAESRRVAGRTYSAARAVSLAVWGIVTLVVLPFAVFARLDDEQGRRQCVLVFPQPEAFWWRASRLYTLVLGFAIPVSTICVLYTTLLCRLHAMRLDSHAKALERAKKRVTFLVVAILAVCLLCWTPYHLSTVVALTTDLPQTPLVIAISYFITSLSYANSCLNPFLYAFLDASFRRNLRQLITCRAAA

[3] = target: T2, Carboxy-terminal domain RNA polymerase II polypeptide A small phosphatase 1 (Homo sapiens, UniProt Q9GZU7); test: CTDSP1 inhibitors, concentration-response, biochemical, absorbance readout, ultra-high-throughput screen actives (AID 540297); type: functional
T2 sequence (Q9GZU7 whole entry): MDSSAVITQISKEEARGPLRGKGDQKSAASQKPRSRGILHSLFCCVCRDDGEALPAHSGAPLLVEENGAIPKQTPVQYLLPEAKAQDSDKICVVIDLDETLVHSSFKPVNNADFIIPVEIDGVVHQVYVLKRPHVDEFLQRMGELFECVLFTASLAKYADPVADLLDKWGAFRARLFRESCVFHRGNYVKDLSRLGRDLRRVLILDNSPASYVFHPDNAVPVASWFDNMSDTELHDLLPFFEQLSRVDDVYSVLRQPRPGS

[4] = Trypanosoma cruzi growth suppression in host cells – NIH3T3 host cells, beta-gal luminescence, confirmation (AID 2044); type: functional, cell-based;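 note: intracellular parasites grown in NIH/3T3 mouse fibroblasts as host cells; luminescent beta-galactosidase reporter signal from transgenic T. cruzi replicating inside host cells; inhibitors lower the luminescence signal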
[5] = NIH3T3 cell viability loss – ATP luminescence, mouse fibroblasts, counter-screen, dose response (AID 2010); type: functional, cell-based;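 note: cells exposed to compound for about 90 hours before reading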
[6] = cells
[7] = target: T3, Eukaryotic translation initiation factor 2-alpha kinase 3 (Homo sapiens, UniProt Q9NZJ5); test: Dose response cell-based high-throughput screening assay to measure PERK inhibition. [Related pubchem assays: 1416 ]; type: functional
T3 sequence (Q9NZJ5 whole entry): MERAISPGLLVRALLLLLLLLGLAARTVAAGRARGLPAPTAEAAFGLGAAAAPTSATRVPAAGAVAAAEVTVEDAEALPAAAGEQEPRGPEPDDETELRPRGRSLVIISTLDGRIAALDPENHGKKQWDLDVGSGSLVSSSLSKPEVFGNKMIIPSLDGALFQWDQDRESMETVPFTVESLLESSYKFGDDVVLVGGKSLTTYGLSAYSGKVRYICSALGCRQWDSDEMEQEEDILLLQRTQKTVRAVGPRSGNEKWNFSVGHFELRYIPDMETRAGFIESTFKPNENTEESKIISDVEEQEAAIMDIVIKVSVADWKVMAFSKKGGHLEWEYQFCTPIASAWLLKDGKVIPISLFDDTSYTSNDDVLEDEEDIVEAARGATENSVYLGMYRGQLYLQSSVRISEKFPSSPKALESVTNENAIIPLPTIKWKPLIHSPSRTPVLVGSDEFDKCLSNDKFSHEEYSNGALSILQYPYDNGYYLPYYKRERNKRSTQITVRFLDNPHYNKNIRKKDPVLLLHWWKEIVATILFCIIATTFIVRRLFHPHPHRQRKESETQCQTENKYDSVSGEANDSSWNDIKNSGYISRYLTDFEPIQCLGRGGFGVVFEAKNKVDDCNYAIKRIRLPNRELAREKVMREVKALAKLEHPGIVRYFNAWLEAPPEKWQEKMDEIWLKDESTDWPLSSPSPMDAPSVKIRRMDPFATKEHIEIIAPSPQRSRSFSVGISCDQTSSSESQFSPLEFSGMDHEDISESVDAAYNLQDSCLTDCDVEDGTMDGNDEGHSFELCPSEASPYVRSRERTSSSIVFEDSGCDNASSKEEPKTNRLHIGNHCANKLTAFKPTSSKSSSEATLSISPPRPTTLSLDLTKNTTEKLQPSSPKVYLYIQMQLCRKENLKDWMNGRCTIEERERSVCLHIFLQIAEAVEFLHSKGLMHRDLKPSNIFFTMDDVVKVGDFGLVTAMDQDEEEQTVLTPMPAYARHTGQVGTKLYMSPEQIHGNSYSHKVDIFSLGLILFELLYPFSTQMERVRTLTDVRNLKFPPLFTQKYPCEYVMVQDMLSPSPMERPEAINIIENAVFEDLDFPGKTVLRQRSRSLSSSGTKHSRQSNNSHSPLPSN

[8] = target: T3, Eukaryotic translation initiation factor 2-alpha kinase 3; test: Counterscreen assay for PERK inhibitors: Dose response cell-based high throughput screening assay to measure inhibition of PERK at 6 hours. [Related pubchem assays: 1522, 1416 ]; type: functional
[9] = system: H9c2; test: cells; type: functional, cell-based; settings: Rattus norvegicus, H9c2, Myocardium;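 note: confirmatory concentration-response retest of ultra-high-throughput screening hits for modulation of myocardial damage; cell death induced by hydrogen peroxide oxidative stress; compound pretreatment for 60 min then peroxide exposure for 2 h; potency is for protecting the cells against peroxide damage rather than for killing them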
[10] = system: BJ; test: BJ-TERT fibroblast viability loss – cell-based, RAS-independent, luminescence, dose response (AID 1933); type: functional; settings: Homo sapiens
[11] = system: BJ; test: cells; type: functional, cell-based; settings: Homo sapiens
[12] = Luminescence Cell-Based Dose Response HTS to Identify Inhibitors of 5'UTR Stem-Loop Driven Prion Protein mRNA Translation in H4 Neuroglioblastoma Cells. [Related pubchem assays: 1827 (Project Summary), 1813 (Primary HTS)]; type: functional
[13] = target: T4, Fructose-bisphosphate aldolase (Mycobacterium tuberculosis, UniProt P9WQA3); test: Fluorescence-based biochemical high throughput dose response assay for inhibitors of the fructose-bisphosphate aldolase (FBA) of M. tuberculosis.; type: functional
T4 sequence (P9WQA3 whole entry): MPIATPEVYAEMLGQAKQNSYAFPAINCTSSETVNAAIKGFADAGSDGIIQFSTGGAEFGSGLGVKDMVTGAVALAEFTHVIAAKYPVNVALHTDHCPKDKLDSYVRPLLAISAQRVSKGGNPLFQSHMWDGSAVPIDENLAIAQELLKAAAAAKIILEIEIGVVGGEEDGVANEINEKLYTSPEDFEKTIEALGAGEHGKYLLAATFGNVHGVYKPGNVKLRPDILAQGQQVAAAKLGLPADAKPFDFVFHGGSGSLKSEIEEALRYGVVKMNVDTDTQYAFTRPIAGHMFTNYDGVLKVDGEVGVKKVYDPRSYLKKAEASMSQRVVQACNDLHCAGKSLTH

[14] = DRD fibroblast viability loss – cell-based, non-viral oncogenic, luminescence, dose response (AID 1934); type: functional; settings: Homo sapiens
[15] = alpha-synuclein stem-loop luciferase translation blockers – H4 neuroglioma cells, luminescence, confirmation (AID 1988); type: functional, cell-based
[16] = luciferase reporter signal reduction – luminescence, H4-C neuroglioblastoma cells, dose response (AID 2458); type: functional, cell-based;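 note: H4 neuroglioblastoma cells stably carrying a luciferase reporter gene fusion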
[17] = alpha-synuclein stem-loop translation blockers – luminescence, H4 neuroglioblastoma cells, dose confirmation, confirmation (AID 2454); type: functional, cell-based;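 note: H4 neuroglioblastoma cells carrying an alpha-synuclein 5'UTR luciferase reporter; potency for inhibition of the luciferase signal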
[18] = HEK-293T viability loss after treatment – luminescence, T-cell screen hits, cytotoxicity control for TCR NF-kB inhibitor project, dose response (AID 489026); type: functional, cell-based;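 note: cells exposed to compound about 14 hours before the viability readout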
[19] = luciferase reporter signal suppression in cells – H4 neuroglioma cells, luminescence, dose response (AID 1990); type: functional, cell-based
[20] = system: BJ; test: growth inhibition of engineered Ras-driven BJ cells – cell-based, alamar blue fluorescence, cherrypicked samples, dose response (AID 2631); type: functional; settings: Homo sapiens;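 note: confirmatory dose-response assay in RAS-dependent BJ fibroblasts engineered with TERT, LT and ST, with cytotoxicity read by fluorescence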
[21] = system: BJ; test: BJ-TERT-LT-ST fibroblast viability loss – cell-based, RAS-independent, luminescence, dose response (AID 1935); type: functional; settings: Homo sapiens;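 note: BJ fibroblasts immortalized with TERT plus LT and ST oncogenes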
[22] = cells; type: functional, cell-based
[23] = mitochondrial function rescue without frataxin homolog – Friedreich's ataxia, plus single-dose screen, dose response (AID 1465); type: functional;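 note: yeast depleted of Yfh1p frataxin homolog grown on glycerol needing respiration; WST-1 tetrazolium dye reduction as measure of cellular dehydrogenase metabolic activity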
[24] = system: HeLa; test: viability loss in HeLa cells – cell-based, 24 h, cherry-picked samples, cytotoxicity control, dose response (AID 504726); type: functional; settings: Homo sapiens;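 note: potency for cytotoxicity as loss of luminescence signal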
[25] = viability loss in THP-1 monocytes – THP-1 cells, cytotoxicity control for Vif-APOBEC3G degradation inhibitor project, dose response (AID 1117359); type: functional; settings: THP-1
[26] = target: T5, Induced myeloid leukemia cell differentiation protein Mcl-1 (Homo sapiens, UniProt Q07820); test: blockers of MCL1 binding to BIM peptide – biochemical, fluorescence polarization, BIM-BH3 peptide, 1536-well, dose response (AID 2217)
[27] = target: T6, RNA-binding protein pos-1 (Caenorhabditis elegans, UniProt G5EF15); test: disruptors of C. elegans POS-1 RNA interaction – biochemical, fluorescence polarization, dose response (AID 1964);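 note: purified POS-1 fused to maltose binding protein made in E. coli; potency of compounds blocking POS-1 binding to fluorescent RNA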
T6 sequence (G5EF15 whole entry): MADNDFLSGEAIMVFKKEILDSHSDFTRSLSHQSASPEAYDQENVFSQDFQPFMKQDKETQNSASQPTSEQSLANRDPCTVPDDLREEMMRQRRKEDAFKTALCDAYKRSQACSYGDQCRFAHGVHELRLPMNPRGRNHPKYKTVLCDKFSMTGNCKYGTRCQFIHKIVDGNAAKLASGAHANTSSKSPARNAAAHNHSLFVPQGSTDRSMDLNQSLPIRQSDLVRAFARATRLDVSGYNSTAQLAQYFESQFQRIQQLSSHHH

[28] = target: T5, Induced myeloid leukemia cell differentiation protein Mcl-1; type: functional
[29] = target: Glucose-6-phosphate 1-dehydrogenase (Homo sapiens, UniProt P11413); test: inhibition of Homo sapiens G6PD, dose series – biochemical, fluorescence, selectivity assay for P. falciparum G6PD inhibitor project, dose response (AID 504792); type: functional
[30] = viability loss in HepG2 hepatoma cells – cell-based, ATP luminescence, cherry-pick, activator set 2, cytotoxicity control, dose response (AID 1053143); type: functional
[31] = HGIII-sPLA2 enzyme inhibition potency – biochemical, QFRET, IC50, dose response (AID 743457);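 note: green fluorescence rise as the enzyme cleaves BODIPY PC-A2 in liposomes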
[32] = target: Bcl-2-like protein 1 (Homo sapiens, UniProt Q07817); test: blockers of BCLXL peptide binding – biochemical, fluorescence polarization, 1536-well, selectivity assay for MCL1 inhibitor project, dose response (AID 2218)
[33] = target: T7, Zinc finger protein mex-5 (Caenorhabditis elegans, UniProt Q9XUB2); test: potency of MEX-5 RNA-binding blockers – biochemical, C. elegans, fluorescence polarization, dose response (AID 1960)
T7 sequence (Q9XUB2 whole entry): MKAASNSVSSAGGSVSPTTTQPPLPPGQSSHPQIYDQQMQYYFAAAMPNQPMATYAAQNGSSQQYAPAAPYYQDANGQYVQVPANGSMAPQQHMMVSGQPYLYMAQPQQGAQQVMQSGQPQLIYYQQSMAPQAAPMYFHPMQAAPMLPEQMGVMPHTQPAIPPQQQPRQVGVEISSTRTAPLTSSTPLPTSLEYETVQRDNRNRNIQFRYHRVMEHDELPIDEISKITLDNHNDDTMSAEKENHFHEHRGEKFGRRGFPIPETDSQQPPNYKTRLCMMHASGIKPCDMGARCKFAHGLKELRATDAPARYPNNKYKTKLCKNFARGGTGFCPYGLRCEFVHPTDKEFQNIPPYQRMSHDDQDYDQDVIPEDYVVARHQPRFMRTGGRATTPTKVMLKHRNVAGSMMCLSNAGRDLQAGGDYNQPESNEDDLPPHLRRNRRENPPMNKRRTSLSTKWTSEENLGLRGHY

[34] = system: Vero; test: viability of Vero cells under compound – cytotoxicity control for flavivirus capping enzyme inhibitors (AID 588742); type: functional; settings: Chlorocebus sabaeus
[35] = target: Genome polyprotein (dengue virus type 2, UniProt P29990); test: flavivirus cap methylation enzyme inhibition – biochemical, confirmation dose response, primary screen (AID 588689); type: functional
Sequence of Genome polyprotein (P29990 2492-3391 limits assumed): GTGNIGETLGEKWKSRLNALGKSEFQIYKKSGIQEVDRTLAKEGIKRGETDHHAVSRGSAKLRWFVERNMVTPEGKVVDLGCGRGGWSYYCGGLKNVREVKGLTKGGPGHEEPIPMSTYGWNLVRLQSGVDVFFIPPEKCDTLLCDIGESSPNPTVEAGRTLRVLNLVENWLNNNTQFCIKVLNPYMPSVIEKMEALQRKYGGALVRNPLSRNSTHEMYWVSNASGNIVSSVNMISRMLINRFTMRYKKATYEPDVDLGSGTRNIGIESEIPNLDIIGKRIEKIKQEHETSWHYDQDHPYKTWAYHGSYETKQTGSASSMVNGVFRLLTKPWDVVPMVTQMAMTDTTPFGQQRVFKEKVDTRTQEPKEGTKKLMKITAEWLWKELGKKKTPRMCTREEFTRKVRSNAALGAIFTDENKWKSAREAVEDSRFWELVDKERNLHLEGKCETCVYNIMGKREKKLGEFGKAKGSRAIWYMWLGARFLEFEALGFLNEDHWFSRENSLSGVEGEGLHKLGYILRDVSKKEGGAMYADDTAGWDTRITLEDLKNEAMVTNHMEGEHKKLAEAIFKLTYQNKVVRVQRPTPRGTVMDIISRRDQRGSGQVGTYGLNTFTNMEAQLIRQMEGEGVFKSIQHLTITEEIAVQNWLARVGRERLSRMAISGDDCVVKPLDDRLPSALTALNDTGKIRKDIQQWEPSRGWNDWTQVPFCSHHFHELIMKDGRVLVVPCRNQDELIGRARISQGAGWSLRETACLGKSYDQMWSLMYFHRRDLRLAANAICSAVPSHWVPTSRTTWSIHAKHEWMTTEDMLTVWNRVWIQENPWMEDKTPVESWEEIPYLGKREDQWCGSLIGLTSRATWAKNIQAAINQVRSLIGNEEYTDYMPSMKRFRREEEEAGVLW

T5 sequence (Q07820 whole entry, the tested form may be a part): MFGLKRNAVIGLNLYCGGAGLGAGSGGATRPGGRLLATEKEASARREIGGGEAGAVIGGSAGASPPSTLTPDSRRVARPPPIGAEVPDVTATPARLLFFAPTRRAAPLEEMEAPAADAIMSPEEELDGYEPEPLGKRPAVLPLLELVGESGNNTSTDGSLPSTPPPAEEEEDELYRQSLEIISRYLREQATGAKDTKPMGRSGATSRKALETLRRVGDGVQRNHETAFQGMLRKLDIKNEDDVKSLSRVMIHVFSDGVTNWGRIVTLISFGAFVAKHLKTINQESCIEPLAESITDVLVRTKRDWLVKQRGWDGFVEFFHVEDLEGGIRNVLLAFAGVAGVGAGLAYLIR
Sequence of Melanin-concentrating hormone receptor 1 (Q99705 whole entry): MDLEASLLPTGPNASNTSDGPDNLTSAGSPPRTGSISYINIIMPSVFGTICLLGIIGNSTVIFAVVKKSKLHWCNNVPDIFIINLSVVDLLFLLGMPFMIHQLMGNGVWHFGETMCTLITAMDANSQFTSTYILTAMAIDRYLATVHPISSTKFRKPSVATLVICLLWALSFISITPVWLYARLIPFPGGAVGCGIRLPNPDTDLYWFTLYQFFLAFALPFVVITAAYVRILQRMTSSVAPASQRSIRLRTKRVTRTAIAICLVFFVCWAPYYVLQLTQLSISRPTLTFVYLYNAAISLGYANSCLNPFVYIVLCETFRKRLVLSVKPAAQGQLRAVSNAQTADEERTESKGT
Sequence of Glucose-6-phosphate 1-dehydrogenase (P11413 whole entry): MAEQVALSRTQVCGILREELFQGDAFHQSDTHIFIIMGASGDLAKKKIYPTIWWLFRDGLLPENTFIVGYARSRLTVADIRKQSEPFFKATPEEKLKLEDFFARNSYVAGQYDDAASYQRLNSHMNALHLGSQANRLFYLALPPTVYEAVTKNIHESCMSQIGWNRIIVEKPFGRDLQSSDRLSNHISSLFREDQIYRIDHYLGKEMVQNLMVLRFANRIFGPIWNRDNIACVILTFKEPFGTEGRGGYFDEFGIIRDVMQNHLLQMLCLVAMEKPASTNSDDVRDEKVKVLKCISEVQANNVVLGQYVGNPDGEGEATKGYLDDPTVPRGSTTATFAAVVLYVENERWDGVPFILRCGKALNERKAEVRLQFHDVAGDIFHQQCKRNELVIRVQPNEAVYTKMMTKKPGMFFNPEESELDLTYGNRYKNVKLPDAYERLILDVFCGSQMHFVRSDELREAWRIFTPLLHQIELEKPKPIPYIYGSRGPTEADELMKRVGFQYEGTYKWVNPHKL
Sequence of Bcl-2-like protein 1 (Q07817 whole entry): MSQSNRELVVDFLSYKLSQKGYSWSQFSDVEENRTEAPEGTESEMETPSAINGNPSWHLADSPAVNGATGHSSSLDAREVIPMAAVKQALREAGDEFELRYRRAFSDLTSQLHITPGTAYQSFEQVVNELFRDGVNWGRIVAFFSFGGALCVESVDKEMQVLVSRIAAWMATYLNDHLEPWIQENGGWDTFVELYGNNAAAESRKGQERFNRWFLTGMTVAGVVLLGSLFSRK

SMILES: CCc1ccc(C2CC(c3ccccc3Cl)Nc3nc(N)nn32)cc1 (configuration not stated)
- IC50 [1]: 19.6 µM (not active)
- IC50 [2]: 5.58 µM (active)

SMILES: Cc1ccccc1NC(=O)Cn1nnc(S(=O)(=O)c2ccc(C(C)(C)C)cc2)c1N
- IC50 [1]: > 43.8 µM (not active)
- IC50 [3]: 7.74 µM (active)
- IC50 [2]: > 43.8 µM (not active)

SMILES: CN(C)CCCN(C(=O)COc1ccc(Cl)cc1)c1nc2cc3c(cc2s1)OCCO3
- EC50 [4]: < 0.1 µM (active)
- EC50 [5]: > 60 µM (not active)
- EC50 [6]: 0.069 µM (active)

SMILES: COC(=O)Cc1nnc(O)c2ccccc12
- EC50 [7]: > 55.7 µM (not active)
- EC50 [8]: > 55.7 µM (not active)
- IC50 [9]: > 79 µM (inactive)

SMILES: O=C(NCC(c1cccnc1)N1CCN(c2ccccc2)CC1)Oc1ccccc1 (configuration not stated)
- EC50 [4]: < 0.1 µM (active)
- EC50 [5]: > 30 µM (not active)
- EC50 [6]: 0.052 µM (active)

SMILES: N#Cc1ccc(-c2cccs2)nc1SCc1cccnc1
- EC50 [10]: 7.55 µM (inconclusive)
- EC50 [11]: 15 µM (active)
- EC50 [12]: 0.156 µM (active)
- IC50 [13]: > 1.11 µM (active)
- EC50 [14]: 11.5 µM (inconclusive)
- EC50 [15]: < 0.1 µM (active)
- EC50 [16]: 0.841 µM (active)
- EC50 [17]: > 12 µM (not active)
- IC50 [18]: > 80 µM (inactive)
- EC50 [19]: 5.46 µM (active)
- EC50 [20]: 0.188 µM (active)
- EC50 [21]: 3.66 µM (inconclusive)
- EC50 [22]: 1.24 µM (active)

SMILES: O=C(NNc1nc2ccc(F)cc2s1)c1cccc(F)c1
- EC50 [4]: 3.84 µM (active)
- EC50 [23]: > 100 µM (active)
- EC50 [5]: 6.48 µM (active)

SMILES: COc1ccc(/C=C/C(=O)NC(=S)Nc2ccc(S(N)(=O)=O)cc2)cc1
- AC50 [24]: 246 µM (active)

SMILES: C=CC/N=c1\scc(-c2ccco2)n1/N=C/c1ccc(O)c(O)c1O
- CC50 [25]: > 40 µM (active)
- IC50 [26]: 2.94 µM (active)
- EC50 [27]: 40.6 µM (active)
- IC50 [28]: 2.81 µM (not active)
- IC50 [29]: > 80 µM (inactive)
- AC50 [30]: 26 µM (active)
- IC50 [31]: 49.6 µM (inactive)
- IC50 [32]: > 109 µM (not active)
- EC50 [33]: 2.68 µM (active)
- CC50 [34]: 22.8 µM (active)
- IC50 [35]: 83.8 µM (active)
